The text below walks through data of patent US8278333B2, “Crystals of benzoxadiazole derivative” (Astellas Pharma Inc., priority 2006, dated 2012).

A short description of series [1]: Hygroscopicity test (VTI SGA-100, 25° C., 5 to 95% relative humidity). The class given is physicochemical. The following applies: for hygroscopicity (in words): 5 to 95% relative humidity. As to the method:
The measurement was carried out using “DVS” or “SGA-100”, under the conditions of temperature: 25° C., measurement range: 5 to 95% relative humidity, and measurement interval: 5% relative humidity.
For the measurement of hygroscopicity, “VTI SGA-100” was used under the conditions of temperature: 25° C., measurement range: 5 to 95% relative humidity, and measurement interval: 5% relative humidity.

Series [2] in a line: Photo stability test (impurity by HPLC after 1.2 million lux-hours). The class given is physicochemical. The following applies: after preservation under 1.2 million lux-hours of integrated luminance, 25° C. On the procedure:
The amount of impurity was measured through HPLC using a preserved sample, under 1.2 million lux-hours (temperature: 25° C.) of integrated luminance, using a light stability testing device LTL-200D3J-15.
The amount of impurity was measured through HPLC using a preserved sample, under 1.2 million lux-hours (temperature: 25° C.) of integrated luminance, using a light stability testing device LTL-200D3J-15. • HPLC Conditions • Device: LC1100 (LC-5) manufactured by Agilent • Mobile phase: A: 0.01 mol/L, NaClO4 buffer (pH 2.5), B: MeCN • Flow rate: 0.2 mL/min • Column: Inertsil ODS-3 3 um (2.1 mm×100 mm) • Column temperature: 40° C. • Gradient condition: Bconc. 20 to 90% (0 to 18 min), 90% (18 to 23 min), 20% (23.1 to 33 min) • Injection volume: 1 μL • Autosampler temperature: 5° C. • Detection wavelength: 254 nm

Entries after “also recorded” stand apart in the source; their conditions may differ.

On to `CC(C)c1nnc(-c2ccc(-c3ccccc3)nc2)n1-c1cccc2nonc12` [γ-form crystal, 4-[3-isopropyl-5-(6-phenyl-3-pyridyl)-1,2,4-triazol-4-yl]-2,1,3-benzoxadiazole], for which the “hygroscopicity (in words)” value in series [1] is reported as “no hygroscopicity”. The “Impurity Increase Amount (%)” value in series [2] and in series [2] (listed as γ-form Crystal) was 0.0% each time.

On to `CC(C)c1nnc(-c2ccc(-c3ccccc3)nc2)n1-c1cccc2nonc12` [δ-form crystal, 4-[3-isopropyl-5-(6-phenyl-3-pyridyl)-4H-1,2,4-triazol-4-yl]-2,1,3-benzoxadiazole, reference compound], for which, in series [1], the “relative humidity from which a drastic increase in weight is shown” value is recorded as “about 80%” and the “relative humidity from which hygroscopicity gradually starts” value is on record as “about 50%”. Moreover, the moisture retained entry in series [1] (at a relative humidity of about 95%) is reported as “approximately 2%”. Moreover, the “Impurity Increase Amount (%)” value in series [2] is 1.0%. Moreover, the “Impurity Increase Amount (%)” value in series [2] (listed as δ-form Crystal) was found to be 1.0%.

As for `CC(C)c1nnc(-c2ccc(-c3ccccc3)nc2)n1-c1cccc2nonc12` [β-form crystal, 4-[3-isopropyl-5-(6-phenyl-3-pyridyl)-4H-1,2,4-triazol-4-yl]-2,1,3-benzoxadiazole], in series [1], the “hygroscopicity (in words)” value is given as “no hygroscopicity”. Besides, the “Impurity Increase Amount (%)” value in series [2] and in series [2] (listed as β-form Crystal) was 0.0% each time.

`CC(C)c1nnc(-c2ccc(-c3ccccc3)nc2)n1-c1cccc2nonc12` [α-form crystal, 4-[3-isopropyl-5-(6-phenyl-3-pyridyl)-4H-1,2,4-triazol-4-yl]-2,1,3-benzoxadiazole]: the “hygroscopicity (in words)” value in series [1] is “less than that of the known δ-form crystal; also recorded: relatively low hygroscopicity as compared to the known δ-form crystal”. For the same compound, the “Impurity Increase Amount (%)” value in series [2] and in series [2] (listed as α-form Crystal) was 0.0% throughout.
